From patent publication US5167949A, “4(3H)-pteridinones, preparation processes and drugs containing them” (Lipha, Lyonnaise Industrielle Pharmaceutique, priority 1989, dated 1992)
Read-outs that look alike come from different tables or passages of the source.

What was measured:
PAF-acether = test: bronchospasm induced in anaesthetized guinea pigs by PAF-acether; format: in vivo; conditions: Cavia porcellus, intravenous, PAF-acether 10 ng/kg/IV
Source text: The compounds described are distinguished, in addition, from known products by their long duration of action and by a capacity for antagonizing the effects of PAF-acether, especially its bronchoconstrictor effects.

in vivo = conditions: read-out: median lethal dose
Description: By way of illustration, for the compound described in Example 1, the median lethal doses determined orally on rats and on mice are above 2,000 mg/kg, and the median lethal doses determined intraperitoneally and intravenously on mice are above 1,600 mg/kg.

[1] = tested on: passive cutaneous anaphylaxis; test: passive cutaneous anaphylaxis (PCA) test; format: in vivo; conditions: Rattus norvegicus, rats, dose decreasing by 50% the skin area occupied by the dye
Description: The anti-allergic activity was measured in rats by the passive cutaneous anaphylaxis or PCA test described by I. Mota, Life Sciences 1963, 7, 465 and Z. Ovary et al., Proceedings of Society of Experimental Biology and Medicine 1952, 81, 584.
In this test, the skin of rats is sensitized by 4 intradermal injections of a homologous anti-ovalbumin serum diluted 15-fold. On the day following sensitization, the animals receive 1 ml/kg of a 2.5% saline solution of Evans blue and 1 ml/kg of a 2.5% saline solution of ovalbumin simultaneously by intravenous injection. The test compounds are administered before the antigen, the time interval being 5 min by intraperitoneal injection and 10 min by the oral route. Thirty minutes after injection of the ovalbumin/dye mixture, the animals are sacrificed and the intensity of the allergic response is determined by measuring the area of skin coloration. The protection provided by the products of the invention is expressed as an ED50 (dose decreasing by 50% the skin area occupied by the dye). Four rats are used for each dose of product.

[2] = ip, intraperitoneal, 5 min before antigen

Row | Compound | ED50 [1, 2] [mg/kg] | ED50 ([1]; oral, 10 min before antigen) [mg/kg] | also measured
1 | CCOCc1nc2nccnc2c(=O)[nH]1 [Example 1, 2-Ethoxymethyl-4(3H)-pteridinone] | 7 | 24 | ED50 (PAF-acether): 0.068 mg/kg; LD50 (in vivo; mouse, ip, mice, intraperitoneal): > 1600 mg/kg; LD50 (in vivo; mouse, mice, intravenous): > 1600 mg/kg; LD50 (in vivo; mouse, mice, oral): > 2000 mg/kg; LD50 (in vivo; rat, rats, oral): > 2000 mg/kg
2 | COCOCc1nc2nccnc2c(=O)[nH]1 [Example 12, 2-Methoxymethoxymethyl-4(3H)-pteridinone] | 18 |  | 
3 | COCc1nc2nccnc2c(=O)[nH]1 [Example 3, 2-Methoxymethyl-4(3H)-pteridinone] | 14 | 33 | 
4 | O=c1[nH]c(COCc2ccccc2)nc2nccnc12 [Example 11, 2-Benzyloxymethyl-4(3H)-pteridinone] | 10 | 48 | 
5 | CC(C)OCc1nc2nccnc2c(=O)[nH]1 [Example 13, 2-Isopropoxymethyl-4(3H)-pteridinone] | 14 |  | 
6 | CCCOCc1nc2nccnc2c(=O)[nH]1 [Example 4, 2-Propoxymethyl-4(3H)-pteridinone] | 9 | 25 | 
7 | CCOCc1nc2nc(O)cnc2c(=O)[nH]1 [Example 7, 2-Ethoxymethyl-7-hydroxy-4(3H)-pteridinone] | 21 |  | 
8 | O=c1[nH]c(COc2ccccc2)nc2nccnc12 [Example 9, 2-Phenoxymethyl-4(3H)-pteridinone] | 39 |  | 
